“Also recorded” adds a separate entry of the source.
Columns and labels:
[1] = test system: human breast cancer cell line MCF7′; test: MTT cytotoxicity assay, MCF7′; type: cell-based; conditions: MCF7, 64 h treatment, MTT, read-out: IC50, nM MCF7′
Text: (§1) The obtained series of verubulin analogues 2a–r (which also included three by-products isolated in the reactions according to Scheme 2) were initially evaluated for cytotoxicity against commonly used human breast cancer cell line MCF7′ (fast-growth subclone), human lung epithelial carcinoma cell line A549 and etiologically non-cancer immortalized lung fibroblast cell line VA13 (WI38 subline 2RA). Cytotoxicity against immortalized human embryonic kidney cell line HEK293T, characterized by a high growth rate, was also studied regarding cytotoxicity against non-cancerous fast-growth cells. A standard MTT assay was performed; verubulin (1) served as a positive reference. The data obtained are presented in Table 1 (for dose–response curves, see Supplementary Materials).
(§2) Human breast cancer cell line MCF7′ and human lung adenocarcinoma cell line A549 were kindly provided by Dr. S. Dmitriev (Lomonosov Moscow State University), immortalized human fibroblast cell line VA13 (WI38 subline 2RA) was kindly provided by Dr. M. Rubtsova (Lomonosov Moscow State University), human embryonic kidney HEK293T cell line was kindly provided by Dr. E. Knyazhanskaya (Lomonosov Moscow State University). MCF7′, VA13, A549 and HEK293T cell lines were maintained in DMEM/F-12 (Thermo Fisher Scientific, Waltham, MA, USA) culture medium containing 10% fetal bovine serum (Thermo Fisher Scientific, Waltham, MA, USA) and 50 μg/mL penicillin and 0.05 mg/mL streptomycin at 37 °C (Thermo Fisher Scientific, Waltham, MA, USA) in 5% CO2. Cells were maintained at 37 °C in a humidified MCO-18AC incubator (Sanyo, Tokyo, Japan) supplied with 5% CO2. Cell cultures were tested for the absence of mycoplasma and validated by STR.
(§3) The cytotoxicity of the substances was tested using the 3-(4,5-dimethylthiazol-2-yl)2,5-diphenyl tetrazolium bromide (MTT) assay with some modifications. A total of 2500 cells per well for the MCF7′, HEK293T, A549 cell lines or 4000 cells per well for the VA-13 cell line were plated out in 135 μL of DMEM-F12 media (Gibco, Thermo Fisher Scientific, Waltham, MA, USA) in a 96-well plate and incubated in the 5% CO2 incubator for the first 20 h without treatment. Then, 15.8 μL of media–DMSO solutions of tested substances (final DMSO concentrations in the media were 0.5% or less) was added to the cells (triplicate each) and cells were treated for 64 h with 0.023 mg/L–50 mg/L (eight dilutions) of compounds 2f,n,o,r; 1.14 μg/L–2.5 mg/L (eight dilutions) of compounds 2a,b,d,g,h,k,l,p,q; 57.2 ng/L–125 μg/L (eight dilutions) of compounds 2e,i,j; 22.9 ng/L–50 μg/L (eight dilutions) of compounds 1,2c,m. Doxorubicin was used as a control substance. Then, the MTT reagent (Paneco LLC, Moscow, Russia) was added to cells up to a final concentration of 0.5 g/L (10 × stock solution in PBS was used) and incubated for 2 h at 37 °C in the incubator, under an atmosphere of 5% CO2. Then, the MTT solution was discarded, and 140 μL of DMSO (PharmaMed LLC, Moscow, Russia) was added. The plates were swayed on a shaker (120 rpm) to dissolve the formazan. The absorbance was measured using a microplate reader (VICTOR X5 Light Plate Reader, PerkinElmer, Waltham, MA, USA) at a wavelength of 555 nm (in order to measure formazan concentration). The results were used to construct dose–response graphs and to estimate IC50 values (IC50 is the concentration resulting in half of the maximal cytotoxic effect) with GraphPad Prism V, GraphPadSoftware, Inc., San Diego, CA, USA.

[2] = test system: human lung epithelial carcinoma cell line A549; test: MTT cytotoxicity assay, A549; type: cell-based; conditions: A549, 64 h treatment, MTT, read-out: IC50, nM A549
Text: as §1, §2, §3

[3] = test system: immortalized lung fibroblast cell line VA13 (WI38 subline 2RA); test: MTT cytotoxicity assay, VA13; type: cell-based; conditions: Homo sapiens, VA-13; 64 h treatment, MTT; read-out: IC50, nM VA13
Text: as §1, §2, §3

[4] = test system: immortalized human embryonic kidney cell line HEK293T; test: MTT cytotoxicity assay, HEK293T; type: cell-based; conditions: HEK-293T, 64 h treatment, MTT, read-out: IC50, nM HEK293T
Text: as §1, §2, §3

[5] = test system: MCF7′, A549, VA13, HEK293T cell lines; test: MTT cytotoxicity, SAR statements over the cell line panel; type: cell-based, human; conditions: for cytotoxicity, in words: MTT, 64 h; for reduction of cytotoxicity on removal of para-methoxy substituent: 2a vs. 2c, 2g vs. 2i
Text: as §1, §3

[6] = test system: microtubules in carcinoma A549 cells; test: Immunofluorescent microscopy of microtubules; type: cell-based, human
Procedure: Since verubulin is known to stimulate microtubule disassociation, we performed an immunofluorescent microscopy study to determine the response of microtubule dynamics in carcinoma A549 cells to the treatment with representative compounds 2b,c,e. […] Aberrant cell morphology—contraction and rounding (Figure 2A,B) or contraction and elongation (Figure 2C)—was also observed.
A549 cells were seeded on coverslips (treated with poly-l-lysine at a concentration of 33 mg/L for an hour). Compounds were added up to the corresponding concentration after 24 h attachment and growth of the cells. Then, cells were incubated 24 h.
The cells were fixed with methanol (precooled in liquid nitrogen for 20 min), no additional permeabilization was performed. To prevent non-specific binding, cells were incubated with 4% BSA in PBS for one hour. Then, a solution of mouse monoclonal antibodies against alpha-tubulin cross-linked with Alexa 488 fluoroform (Thermo Fisher Scientific, Waltham, MA, USA, 32-2588) at a concentration of 5 μg/mL in 1% BSA solution in PBS was added to the cells, and the slides were incubated at +5 °C in a water chamber for 24 h. After the end of the incubation time, the cells were washed several times with PBS buffer solution and fixed on a glass slide with Moviol. Next day, cells were imaged with a ZEISS LSM 900 (ZEISS Microscopy, GmbH, Germany) and images processed with ImageJ.

Compound | IC50 [1] [nM] | IC50 [2] [nM] | IC50 [3] [nM] | IC50 [4] [nM] | melting point [°C] | cytotoxicity, in words [5] | reduction of cytotoxicity on removal of para-methoxy substituent [5] | effect on microtubules (MTs) ([6]; 100 μM (very high concentration), 24 h, A549) | selectivity towards tumor cells ([5]; pair A549/VA13) | reduction of cytotoxicity relative to 2c ([5]; ring B enlarged to seven-membered) | effect on microtubules (MTs) ([6]; 10 μM, 24 h, A549) | effect on microtubules ([6]; 5–10 μM, 24 h, A549) | effect on microtubules (MTs) ([6]; 0.03 μM, A549, positive control) | activity relative to 2k ([5]; conformational restriction of 2k)
Cc1nc2c(c(N3CCCc4ccccc43)n1)CCCC2 [Compound 2d, 4-(3,4-Dihydroquinolin-1(2H)-yl)-2-methyl-5,6,7,8-tetrahydroquinazoline] | 9100 ± 2200 | 12600 | 3000 ± 700 | 7300 ± 1200 | 118 to 119 | – | – | – | – | – | – | – | – | –
COc1ccc2c(c1)CCCN2c1nc2c(c(OC(C)C)n1)CCCC2 [Compound 2r, 4-Isopropoxy-2-(6-methoxy-3,4-dihydroquinolin-1(2H)-yl)-5,6,7,8-tetrahydroquinazoline] | 24200 | 23800 | 118000 | 53500 | – | moderately cytotoxic | – | – | – | – | – | – | – | –
COc1ccc2c(c1)CCCN2c1nc2c(c(N3CCCc4cc(OC)ccc43)n1)CCCC2 [Compound 2p, 2,4-Bis(6-methoxy-3,4-dihydroquinolin-1(2H)-yl)-5,6,7,8-tetrahydroquinazoline] | 660 ± 150 | 640 ± 76 | 290 ± 74 | 510 ± 33 | – | moderately cytotoxic | – | – | – | – | – | – | – | –
COc1ccc2c(c1)CCCN2c1nc(OC(C)C)nc2c1CCCC2 [Compound 2q, 2-Isopropoxy-4-(6-methoxy-3,4-dihydroquinolin-1(2H)-yl)-5,6,7,8-tetrahydroquinazoline] | 310 ± 22 | 360 ± 34 | 160 ± 20 | 250 ± 11 | – | largely restored | – | – | – | – | – | – | – | –
Cc1nc2c(c(N(C)c3ccccc3)n1)CCCC2 [Compound 2a, N,2-Dimethyl-N-phenyl-5,6,7,8-tetrahydroquinazolin-4-amine] | 1840 ± 810 | 2200 ± 260 | 1400 ± 180 | 1750 ± 230 | 84 to 85 | – | 2–3 orders of magnitude | intact MTs; also recorded: no effect on the microtubule cytoskeleton | – | – | – | – | – | –
COc1ccc2c(c1)CCCN2c1nc(O)nc2c1CCCC2 [Compound 2o, 2-Hydroxy-4-(6-methoxy-3,4-dihydroquinolin-1(2H)-yl)-5,6,7,8-tetrahydroquinazoline] | > 50000 | > 50000 | > 50000 | > 50000 | – | complete loss of cytotoxicity | – | – | – | – | – | – | – | –
COc1ccc(N(C)c2nc(C)nc3c2CCCCC3)cc1 [Compound 2k, N-(4-Methoxyphenyl)-N,2-dimethyl-6,7,8,9-tetrahydro-5H-cyclohepta[d]pyrimidin-4-amine] | 53 ± 7 | 79 ± 10 | 22 ± 6 | 39 ± 6 | 92 to 93 | – | – | – | no selectivity | more than 10 times | – | – | – | –
COc1ccc(N(C)c2nc3c(c(N(C)c4ccc(OC)cc4)n2)CCCC3)cc1 [Compound 2n, N,N′-bis(4-methoxyphenyl)-N,N′-dimethyl-5,6,7,8-tetrahydroquinazolin-2,4-diamine] | 2500 ± 140 | 3270 ± 290 | 2290 ± 160 | 1720 ± 68 | – | moderately cytotoxic | – | – | – | – | – | – | – | –
Cc1ccc(N(C)c2nc(N)nc3c2CCCC3)cc1 [Compound 2h, N^4-Methyl-N^4-(4-methylphenyl)-5,6,7,8-tetrahydroquinazolinyl-2,4-diamine] | 210 ± 15 | 310 ± 23 | 150 ± 14 | 170 ± 18 | 135 to 136 | – | – | – | – | – | – | – | – | –
CN(c1ccccc1)c1nc(N)nc2c1CCCC2 [Compound 2g, N^4-Methyl-N^4-phenyl-5,6,7,8-tetrahydroquinazolinyl-2,4-diamine] | 28600 | 36400 | 26900 | 26300 | 128 to 129 | – | 2–3 orders of magnitude | – | – | – | – | – | – | –
Cc1nc2c(c(N3CCCc4ccc([N+](=O)[O-])cc43)n1)CCCC2 [Compound 2f, 2-Methyl-4-(7-nitro-3,4-dihydroquinolin-1(2H)-yl)-5,6,7,8-tetrahydroquinazoline] | > 50000 | > 50000 | > 50000 | > 50000 | 184 to 185 | inactive | – | – | – | – | – | – | – | –
Cc1ccc(N(C)c2nc(C)nc3c2CCCC3)cc1 [Compound 2b, N,2-Dimethyl-N-(4-methylphenyl)-5,6,7,8-tetrahydroquinazolin-4-amine] | 97 ± 7 | 110 ± 8 | 62 ± 8 | 89 ± 3 | 91 to 92 | – | – | – | – | – | depolymerization of MTs | pronounced or complete disruption of microtubules | – | –
COc1ccc(/C=C\c2cc(OC)c(OC)c(OC)c2)cc1O [CA-4, combretastatin A-4, reference compound] | – | – | – | – | – | – | – | – | – | – | – | – | full depolymerization of MTs | –
COc1ccc2c(c1)CCCN2c1nc(C)nc2c1CCCCC2 [Compound 2l, 4-(6-Methoxy-3,4-dihydroquinolin-1(2H)-yl)-2-methyl-6,7,8,9-tetrahydro-5H-cyclohepta[d]pyrimidine] | 360 ± 70 | 790 ± 19 | 260 ± 80 | 450 ± 100 | 122 to 123 | – | – | – | – | – | – | – | – | seven to twelve times less active

From article PMC10610134, “Verubulin (Azixa) Analogues with Increased Saturation: Synthesis, SAR and Encapsulation in Biocompatible Nanocontainers Based on Ca^2+ or Mg^2+ Cross-Linked Alginate” (Pharmaceuticals, 2023)
